Reference: the NIST ThermoML archive (doi:10.1016/j.jct.2015.10.016)
± gives the expanded uncertainty stated by the source.

How the values were obtained:
[1] = Crystal; DTA
[2] = Molar enthalpy of transition or fusion; conditions: Crystal; DSC

For `O=C(NC[C@H]1CN(c2ccc(N3CCOCC3=O)cc2)C(=O)O1)c1ccc(Cl)s1` [Rivaroxaban], the Normal melting temperature [1] was 235.40 ± 1.1 °C and the “Molar enthalpy of transition or fusion” value [2] was 11.2 ± 0.502 kcal/mol.
